In patent US20090215710A1, “CARBOHYDRATE BASED TOLL-LIKE RECEPTOR (TLR) ANTAGONISTS” (RELIANCE LIFE SCIENCES PVT. LTD., priority 2007, published 2009):

Experiments:
TNF-α mRNA = TNF-α mRNA expression in LPS stimulated THP-1 cells (real-time PCR); assay type: cell-based, human; conditions: THP-1, LPS 250 ng/ml 1 hr
Method: To determine whether the suppressive effect of RSCL-0409 on the cytokine production occurs at mRNA expression level, quantitative real-time PCR was used to examine TNF-α and IL-6 mRNA expression in THP-1 cells stimulated with LPS. THP-1 cells (3×10^6 cells/well) were stimulated with 250 ng/ml LPS in the presence or absence of RSCL-0409 at indicated concentrations for the 1 hr. Total RNA was isolated from these cells and cDNA was synthesized. LPS treated cells acted as positive control. All quantitative real-time PCR (TaqMan™) primers and probes were obtained from Applied Biosystems (ABI), Weiterstadt, Germany. For detection of TNF-α, pre-developed assay reagents (Universal master mix as obtained from Applied Biosystems included all reagents including Taq-polymerase apart from specific primers and probes) were used. The PCR was performed utilizing 1 μl cDNA per reaction in triplicates of 25 μl volume on an ABI 7500 Realtime PCR machine using a 2-step PCR protocol.
Quantization of mRNA was performed using the comparative threshold cycle method and analysed using standard software and expressed in fold change. The fold change of TNF-α (FIG. 5a) and IL-6 (FIG. 5b) mRNA in treated cells over control was obtained after correction for the amount of β-actin. […] The expression levels of both TNF and IL-6 decreased following 1 hr pretreatment with RSCL-0409 in the presence of LPS. […]

TLR4 = biological target: T1, TLR4 (Homo sapiens, UniProt O00206); experiment: TLR4 ligand induced TNF-α secretion in THP-1 cells and PBMCs (ELISA); assay type: cell-based; conditions: TLR4 ligand 750 ng/ml, 1 hr pre-treatment, 24 hrs
T1 construct: endogenous in cells; host or cells: THP-1 monocytes and PBMCs
T1 sequence (O00206 24-839): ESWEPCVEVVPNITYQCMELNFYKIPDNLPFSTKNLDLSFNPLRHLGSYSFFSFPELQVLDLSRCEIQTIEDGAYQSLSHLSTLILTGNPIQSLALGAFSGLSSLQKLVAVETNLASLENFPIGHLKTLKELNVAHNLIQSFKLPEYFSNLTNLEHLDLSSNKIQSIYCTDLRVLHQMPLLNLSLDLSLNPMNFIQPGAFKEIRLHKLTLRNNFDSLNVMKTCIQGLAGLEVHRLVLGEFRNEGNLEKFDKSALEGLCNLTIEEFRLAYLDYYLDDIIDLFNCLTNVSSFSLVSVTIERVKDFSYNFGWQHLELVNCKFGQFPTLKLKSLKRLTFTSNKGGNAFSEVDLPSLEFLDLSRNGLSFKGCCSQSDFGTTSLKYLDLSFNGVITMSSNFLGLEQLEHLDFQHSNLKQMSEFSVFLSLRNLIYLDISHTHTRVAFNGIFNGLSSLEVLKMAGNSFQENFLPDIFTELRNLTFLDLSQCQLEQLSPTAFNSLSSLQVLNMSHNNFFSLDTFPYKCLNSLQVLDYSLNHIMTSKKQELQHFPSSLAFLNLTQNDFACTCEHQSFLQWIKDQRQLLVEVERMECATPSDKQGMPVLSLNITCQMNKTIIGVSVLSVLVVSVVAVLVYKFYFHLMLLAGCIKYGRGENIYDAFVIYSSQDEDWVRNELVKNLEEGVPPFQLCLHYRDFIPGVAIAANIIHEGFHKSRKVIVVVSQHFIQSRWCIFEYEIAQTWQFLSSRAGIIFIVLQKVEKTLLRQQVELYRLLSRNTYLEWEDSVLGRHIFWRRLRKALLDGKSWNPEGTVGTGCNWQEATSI
T1 sequence (Q9Y6Y9 17-160 partner limits assumed): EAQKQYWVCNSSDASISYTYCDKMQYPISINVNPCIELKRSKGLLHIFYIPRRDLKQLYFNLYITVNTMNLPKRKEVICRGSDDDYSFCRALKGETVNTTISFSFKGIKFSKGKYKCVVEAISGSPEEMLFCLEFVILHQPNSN
Method: The present invention has checked the effect of various TLR ligands on THP-1 monocytes, PBMCs and their ability to activate and release TNF-α. For this purpose about 9 TLR ligands were used. These ligands were obtained from Apotech Cat; APO-54N-018-K100 and assayed for TNF-α release in culture supernatants.
THP-1 and PBMCs (2×10^5 cells/well) were plated in 96-well plate. The cells were pretreated with RSCL-0409 in DMSO 1 hr prior to TLR ligand treatment. Following 1 hr pre-treatment, the cells were treated with TLR ligands [TLR2, TLR5 and TLR6-75 ng/ml each, TLR3-75 μg/ml, TLR4-750 ng/ml, TLR7, TLR8 and TLR9-7.5 μg/ml) for 24 hrs. The culture supernatant were collected after the stipulated time and assayed for TNF-α release using a Duoset Enzyme-Linked ImmunoSorbent Assay (ELISA) detection Kit (R&D systems, MN 55413, USA; Cat: DY-210 E). Simultaneously supernatants were collected from cells treated with ligands without pre-treatment with RSCL-0409 and only RSCL-0409 without ligand treatment.

Balb/c mice [1] = experiment: LPS induced TNF-α release in Balb/c mice, treatment post LPS; assay type: in vivo; conditions: 30 min post LPS (225 μg i.p.)
Method: Here we have stimulated the inflammation process in mice with an injection of LPS (225 μg) intraperitoneally and 30 min post LPS, we have challenged the ability of RSCL-0409 (10 mg/kg, 20 mg/kg) to inhibit the TNF-α secretion.

Balb/c mice [2] = experiment: LPS induced TNF-α release in Balb/c mice, pre-treatment; assay type: in vivo; conditions: 1 hr post LPS
Method: The present invention has studied the ability of RSCL-0409 to exert protection against inflammatory agents in a mice (Balb/c) model. Balb/c (5-6 weeks) mice were injected with LPS (225 μg) intraperitoneally with and without pretreatment of three concentrations of RSCL-0409 (10 mg/kg, 20 mg/kg and 40 mg/kg). The compound was injected intraperitoneally 30 min before LPS treatment. The mice were monitored for 1 hr post LPS treatment. RSCL-0409 injected alone served as negative control. Blood collection was done retro-orbitally under anesthesia, 1 hr post LPS injection. Serum collected after cells were allowed to settle was analysed for TNF-α secretion.

[3] = Cell viability in pre-screen (Table 1); assay type: cell-based
[4] = tested on: ICAM-1, COX-2, IL-1β and IL-8 genes; experiment: mRNA expression of pro-inflammatory genes in THP-1 cells; assay type: cell-based, human; conditions: THP-1, LPS 250 ng/ml
Method: The inhibitory effect of the present invention, RSCL-0409 on mRNA was checked on pro-inflammatory genes like intercellular adhesion molecule1 (ICAM-1), cyclooxygenase 2 (COX-2), IL-1β and IL-8. THP-1 cells (3×10^6 cells) were seeded in a 6-well dish. The cells were treated with RSCL-0409 ([…]) for 1 hr followed by incubation with or without 250 ng/ml of LPS. After two washes with ice-cold PBS, the cells were harvested and total cellular RNA was isolated using TRIZOL Reagent (Invitrogen) according to the manufacturer's instructions. cDNA synthesis was done using high capacity cDNA reverse transcription kit (ABI systems). Amplification of ICAM-1, COX-2, IL-1β and IL-8 genes from the cDNA was carried out using the respective gene specific primers.

TIRAP and MyD88 = experiment: Protein levels of TIRAP and MyD88 in LPS stimulated THP-1 cells (immunoblot); assay type: cell-based, human; conditions: THP-1, LPS 250 ng/ml, 1 hr pre-treatment
Method: Further confirmation was obtained at the protein level. Serum-starved THP-1 cells were stimulated with LPS (250 ng/ml) for the indicated time in the presence and absence of RSCL-0409. RSCL-0409 treatment was 1 hr prior to LPS treatment. Immunoblotting of total protein was carried out as before to determine protein levels of TIRAP and MyD88.

SMILES: COc1ccc(OC2OC3COC(c4ccccc4)OC3C(OC3OC(COC(=O)CCC(C)=O)C(OC(=O)CCl)C(OC(C)=O)C3OC(C)=O)C2NC(=O)C(Cl)(Cl)Cl)cc1 [RSCL-0409, p-Methoxy phenyl-O-(2,3-di-O-acetyl-4-O-chloroacetyl-6-O-levulinoyl-β-D-glucopyranosyl)-(1-3)-2-deoxy-2-trichloroacetamido-4,6-O-benzylidene-α-D-glucopyranoside]
- TNF-α mRNA expression (TNF-α mRNA): down regulated TNF-α to almost control levels
- inhibition of TNF-α secretion (TLR4; PBMCs): ~34%
- inhibition of TNF-α secretion (TLR4; THP-1 cells): ~100%
- inhibition of TNF secretion (Balb/c mice [1]; 10 mg/kg): ~39%
- inhibition of TNF secretion (Balb/c mice [1]; 20 mg/kg): ~47%
- reduction of serum TNF production (Balb/c mice [2]; 10 mg/kg i.p. 30 min before LPS (225 μg i.p.)): ~53%
- reduction of serum TNF production (Balb/c mice [2]; 20 mg/kg i.p. 30 min before LPS (225 μg i.p.)): ~64%
- reduction of serum TNF production (Balb/c mice [2]; 40 mg/kg i.p. 30 min before LPS (225 μg i.p.)): ~67%
- % Viability ([3]; 1 uM): 108%
- % Viability ([3]; 10 uM): 112%
- % Viability ([3]; 50 uM): 114%
- % Viability ([3]; 100 uM): 113%
- mRNA expression of ICAM-1, COX-2, IL-1β and IL-8 [4]: inhibited mRNA expression levels of the tested genes
- protein levels of TIRAP and MyD88 (TIRAP and MyD88): Down regulation of TIRAP and also MyD88 at protein levels
